# Tests used:
# [1] = Blood insulin, intraperitoneal insulin tolerance test (IPITT) and liver western blot after three-month treatment; type: in vivo, B6 male mice; conditions: three months
# Protocol: B6 male mice (8-week-old) were subjected daily for three months to a subcutaneous injection of either vehicle (NaCl 0.9%), Dex, CpdX, CpdX(eA), CpdX(eB), CpdX-D3, CpdX-D3(eA) or CpdX-D3(eB) (1 mg/kg body weight, diluted in vehicle). After three months, the blood was collected at 10 a.m. by retro-orbital puncture in lithium-heparin coated vials, and the plasmatic level of insulin was determined.
# For the intraperitoneal insulin tolerance test (IPITT), mice were fasted for 6 hours before test. The blood glucose concentration was measured both before (To) and during a one-hour period after insulin i.p. injection (0.75 U/kg body weight).
# Following this three-month treatment, liver samples were harvested and lysed in the RIPA buffer (20 mM Tris pH 8, 150 mM NaCl, 10% glycerol, 1% NP-40 and 2 mM EDTA). Antibodies from Cell Signaling were used to assess by Western-Blotting the relative level of p-IRS1 (S318), IRS-1, p-AKT (S473) and AKT.
# [2] = system: dorsal skin of Balb/C mice; assay: Skin epidermis atrophy after 8-day topical treatment of dorsal skin; type: in vivo
# Excerpt: To investigate whether, similarly to Dex, a topical administration of CpdX could result in a skin atrophy, Balb/C mice were shaved on the dorsal skin. Ethanol (vehicle), Dex, CpdX or either one of its two enantiomers CpdX(eA) or CpdX(eB), as well as the deuterated form CpdX-D3 or either one of its two enantiomers CpdX-D3(eA) or CpdX-D3(eB), were topically applied onto the dorsal skin for 8 days.
# Upon completion of the treatments, RNA transcripts were extracted from dorsal skin samples and the transcripts of Kindlin-1 and REDD1 genes were analyzed by q-RT-PCR. Histological and morphometric analyses of the dorsal skin were also performed.
# [3] = system: thymus, spleen, adrenal gland and kidney; assay: Organ weights (thymus, spleen, adrenal gland, kidney) after three-month treatment; type: in vivo, B6 male mice; conditions: s.c. 1 mg/kg daily, three months
# Protocol: B6 male mice (8-week-old) were daily subjected for three months to a subcutaneous injection of either vehicle (NaCl 0.9%), Dex, CpdX, CpdX(eA), CpdX(eB), CpdX-D3, CpdX-D3(eA) or CpdX-D3(eB) (1 mg/kg body weight, diluted in vehicle). Following these treatments, four organs (thymus, spleen, adrenal gland and kidney) were harvested and weighted.
# liver = assay: Fatty liver after three-month treatment (red oil staining, q-RT-PCR, plasma cholesterol and bile acids); type: in vivo, B6 male mice; conditions: three months
# Protocol: B6 male mice (8-week-old) were daily subjected for three months to a subcutaneous injection of either vehicle (NaCl 0.9%), Dex, CpdX, CpdX(eA), CpdX(eB), CpdX-D3, CpdX-D3(eA) or CpdX-D3(eB) (1 mg/kg body weight, diluted in vehicle). Following this treatment, blood was collected at 10 a.m. by retro-orbital puncture in lithium-heparin coated vials. The plasmatic levels of total cholesterol and bile acids were determined.
# Liver samples were harvested. […] RNA transcripts were extracted from liver samples and the transcripts of fatty acid synthase (FASN) and Stearoyl-CoA desaturase 1 (SCD1) genes were analyzed by q-RT-PCR.
# [4] = system: mouse tibia cortical bone and femur trabecular bone; assay: Cortical and trabecular bone formation after three-month treatment (micro-CT, Wnt16 q-RT-PCR); type: in vivo, B6 male mice; conditions: s.c. 1 mg/kg daily, three months
# Protocol: B6 male mice (8-week-old) were daily subjected for three months to either a subcutaneous injection of vehicle (NaCl 0.9%), Dex, CpdX, CpdX(eA), CpdX(eB), CpdX-D3, CpdX-D3(eA) or CpdX-D3(eB) (1 mg/kg body weight, diluted in NaCl 0.9%).
# From each animal included in the experiments, one femur and the ipsilateral tibia were dissected and preserved in 70% ethanol for further bone microstructure analysis by micro-CT. The FX Quantum micro-CT scanner (Perkin Elmer) was used to perform measurements at the distal femur and midshaft tibia. All scans were performed with an isotropic voxel size of 10 μm, 160 μA tube current and 90 kV tube voltage.
# Morphological 3D measurements were performed using the CTAn software (Bruker). Cortical bone parameters, which were measured in the tibia midshaft, included measures of the bone volume fraction as compared to the total volume, cortical thickness, total area, bone area and marrow area. […] Trabecular bone parameters were measured in the distal metaphysis of the femurs and included bone volume fraction, trabecular thickness, trabecular number and trabecular spacing. […]
# The statistical significance as compared to vehicle treatment was calculated through one-way ANOVA test followed by Dunn's multiple comparison test, *p<0.05; **p<0.01; ***p<0.001; ****p<0,0001.
# [5] = Body weight and body composition after three-month treatment (pDEXA); type: in vivo, B6 male mice; conditions: s.c. 1 mg/kg daily, 3 months
# Protocol: B6 male mice (8-week-old) were daily subjected for three months to a subcutaneous injection of either vehicle (NaCl 0.9%), Dex, CpdX or CpdX-D3 (1 mg/kg body weight, diluted in vehicle. A pDEXA machine was used to determine the lean mass and fat mass. The statistical significance was calculated through Krustal-Walis test followed by a Dunn's multiple comparison test, *p<0.05; **p<0.01; ***p<0.001.
# adrenal glands = assay: Corticosterone synthesis and adrenal gland after three-month treatment; type: in vivo, B6 male mice; conditions: three months
# Protocol: B6 male mice (8-week-old) were daily subjected for three months to either a subcutaneous injection of vehicle (NaCl 0.9%), Dex, CpdX, CpdX(eA), CpdX(eB), CpdX-D3, CpdX-D3(eA) or CpdX-D3(eB) (1 mg/kg body weight, diluted in vehicle).
# Following this long-term treatment, blood was collected at 10 a.m. and 6 p.m. by retro-orbital puncture in lithium-heparin coated vials, and the plasmatic level of corticosterone was determined. Adrenal glands were harvested and weighted. RNA transcripts were extracted and transcripts of the Cyp11a, Cyp11b1, Cyp11b2 and HSD3β genes were analyzed by q-RT-PCR. Histological analyses of the adrenal glands were also carried out.
# [6] = Blood glucose and intraperitoneal glucose tolerance test (IPGTT) after three-month treatment; type: in vivo, B6 male mice; conditions: three months
# Protocol: B6 male mice (8-week-old) were daily subjected for three months to a subcutaneous injection of either vehicle (NaCl 0.9%), Dex, CpdX, CpdX(eA), CpdX(eB), CpdX-D3, CpdX-D3(eA) or CpdX-D3(eB) (1 mg/kg body weight, diluted in vehicle). Mice were over-night-fasted. Mouse blood glucose concentration was measured before (To) and during two hours (T120) after glucose i.p. injection ([…]).
# GR [7] = target: T1, GR (Homo sapiens, UniProt P04150); conditions: cited from earlier work
# T1 sequence (P04150 1-777): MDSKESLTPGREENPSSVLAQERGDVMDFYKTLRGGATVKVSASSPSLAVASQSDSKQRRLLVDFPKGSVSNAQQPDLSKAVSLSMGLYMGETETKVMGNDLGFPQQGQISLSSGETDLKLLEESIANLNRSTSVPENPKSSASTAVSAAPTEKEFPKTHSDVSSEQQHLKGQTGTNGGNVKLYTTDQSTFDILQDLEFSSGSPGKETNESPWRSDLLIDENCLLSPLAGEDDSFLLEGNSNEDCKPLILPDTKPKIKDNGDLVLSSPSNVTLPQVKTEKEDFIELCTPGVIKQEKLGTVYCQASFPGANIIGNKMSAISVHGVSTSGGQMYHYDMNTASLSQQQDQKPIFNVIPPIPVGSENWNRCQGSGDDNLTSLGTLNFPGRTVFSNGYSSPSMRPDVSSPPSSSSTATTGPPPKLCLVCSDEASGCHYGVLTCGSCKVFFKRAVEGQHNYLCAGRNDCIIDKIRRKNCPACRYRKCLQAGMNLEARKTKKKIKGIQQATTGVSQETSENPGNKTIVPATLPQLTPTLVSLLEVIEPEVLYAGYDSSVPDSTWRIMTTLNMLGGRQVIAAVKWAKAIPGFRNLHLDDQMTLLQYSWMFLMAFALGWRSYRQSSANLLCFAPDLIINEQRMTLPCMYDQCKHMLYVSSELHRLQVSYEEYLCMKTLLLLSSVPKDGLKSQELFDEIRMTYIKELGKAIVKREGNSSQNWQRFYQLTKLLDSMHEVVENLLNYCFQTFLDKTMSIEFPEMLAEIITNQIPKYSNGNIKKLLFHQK
# GR [8] = target: T2, GR (Rattus norvegicus, UniProt P06536); conditions: cited from earlier work
# T2 sequence (P06536 1-795): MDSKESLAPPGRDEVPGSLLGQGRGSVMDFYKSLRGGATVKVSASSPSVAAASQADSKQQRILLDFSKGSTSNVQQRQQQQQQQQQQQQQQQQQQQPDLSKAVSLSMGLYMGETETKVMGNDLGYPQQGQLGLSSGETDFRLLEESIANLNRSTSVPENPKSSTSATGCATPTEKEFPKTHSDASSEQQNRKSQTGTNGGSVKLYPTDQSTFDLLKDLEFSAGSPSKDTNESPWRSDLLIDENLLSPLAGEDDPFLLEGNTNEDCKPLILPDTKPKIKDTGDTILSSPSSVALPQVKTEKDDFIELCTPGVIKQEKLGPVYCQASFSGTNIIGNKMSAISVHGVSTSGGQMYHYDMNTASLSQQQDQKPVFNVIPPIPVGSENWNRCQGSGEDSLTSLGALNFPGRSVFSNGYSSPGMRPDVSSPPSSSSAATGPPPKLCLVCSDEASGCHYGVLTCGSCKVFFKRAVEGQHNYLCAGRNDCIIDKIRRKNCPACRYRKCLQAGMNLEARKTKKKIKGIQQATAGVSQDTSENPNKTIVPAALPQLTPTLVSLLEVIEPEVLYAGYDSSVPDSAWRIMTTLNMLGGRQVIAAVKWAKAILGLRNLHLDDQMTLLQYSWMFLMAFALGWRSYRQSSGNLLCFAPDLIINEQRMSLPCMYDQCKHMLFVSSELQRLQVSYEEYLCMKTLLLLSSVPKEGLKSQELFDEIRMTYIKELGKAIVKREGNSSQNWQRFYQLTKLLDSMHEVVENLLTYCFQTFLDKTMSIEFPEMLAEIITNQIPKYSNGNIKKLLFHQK
structure (smiles),measurement,setting,value
"C[C@@H]1C[C@H]2[C@@H]3CCC4=CC(=O)C=C[C@]4(C)[C@@]3(F)[C@@H](O)C[C@]2(C)[C@@]1(O)C(=O)CO [Dex, Dexamethasone, reference compound]",blood insulin level (hyperinsulinemia),"[1]; s.c. 1 mg/kg daily, 10 a.m.",hyperinsulinemia
same,phosphorylated insulin receptor substrate 1 (p-IRS1 S318) in liver extracts (western blot),[1],decrease
same,phosphorylation of protein kinase B (p-AKT S473) in liver extracts (western blot),[1],decreased
same,response to insulin in IPITT,[1]; insulin i.p. 0.75 U/kg,significant impaired response to insulin
same,decrease of the epidermal thickness (morphometric analyses),[2]; eight-day topical treatment,65%
same,skin atrophy (histological analysis),[2]; eight-day topical treatment,severely induces a skin atrophy
same,transcription of the Kindlin-1 gene (nGRE) in dorsal skin,"[2]; topical 1 nmole/cm^2, 8 days",strongly decreased
same,transcription of the REDD1 gene (+GRE) in dorsal skin,"[2]; topical 1 nmole/cm^2, 8 days",significantly increased
same,decrease of the spleen weight,[3],more than 50%
same,thymus apoptosis (thymus weight),[3],no thymus was found in sixteen out of nineteen mice
same,lipid deposition in the liver (5% red oil staining),liver; s.c. 1 mg/kg daily,marked lipid deposition
same,blood cholesterol and bile acids' levels,liver; 10 a.m.,clear increase
same,transcripts of fatty acid synthase (FASN) and Stearoyl-CoA desaturase 1 (SCD1) in liver,liver; q-RT-PCR,increase
same,decrease of the transcription of the WNT16 gene in tibia,[4],50%
same,"bone volume as compared to the total volume, tibia cortical bone",[4]; micro-CT,significantly decreased
same,"body weight, change from baseline",[5],net loss
same,"fat mass / fat percentage, change from baseline",[5]; pDEXA,disproportional increase
same,"lean mass / lean percentage, change from baseline",[5]; pDEXA,decrease
same,"cortex layers, most notably the fasciculata zone, of the adrenal glands (histology)",adrenal glands; s.c. 1 mg/kg daily,drastically decreased
same,"transcripts of Cyp11a, Cyp11b1 and HSD3β genes in adrenal glands (corticosterone synthesis pathway)","adrenal glands; s.c. 1 mg/kg daily, q-RT-PCR",inhibited
same,glomerulosa zone of the adrenal cortex (histology),adrenal glands,drastically decreased
same,transcript of the Cyp11b2 gene in adrenal glands (aldosterone synthesis pathway),adrenal glands; q-RT-PCR,inhibited
same,plasmatic corticosterone level at 6 p.m.,adrenal glands; vs Vehicle,much lower
same,plasmatic corticosterone level at 10 a.m.,adrenal glands; vs Vehicle,much lower
same,blood glucose level after over-night fasting,[6]; s.c. 1 mg/kg daily,significantly higher
same,blood glucose level during two-hour IPGTT,[6]; glucose i.p. injection,significant higher
C[C@@H]1C[C@H]2[C@@H]3CCC4=CC(=O)C=C[C@]4(C)[C@@]3(F)[C@@H](O)C[C@]2(C)[C@H]1C(=O)CC#N [RU24858],dissociated profile (transrepression vs transactivation) in vitro,GR [7],exhibit such an expected dissociated profile
same,dissociation upon administration in vivo,GR [8],failed to confirm this dissociation
